According to US20220175925A1, “PHARMACEUTICAL COMPOSITION FOR PREVENTING OR TREATING TREATMENT-RESISTANT CANCER” (JIMRO CO., LTD., priority 2019, published 2022):

Columns and labels:
Assay type in all cases: cell-based
C8166 ATL cell line = experiment: PDT using 5-ALA, cell survival rate by Cell Counting Kit-8, C8166; conditions: for EC50: Homo sapiens, C8166, light or radiation study, 4 h, C8166, 5-ALA loaded 4 hours
Text: (§1) ATN-1, C8166, TL-Om1, Hut102, and MT-1 were used as ATL cell lines. Among them, lenalidomide-sensitive cell line was Hut102 and lenalidomide-resistant cell line was C8166. The sensitivity of ATN-1, TL-Om1, and MT-1 to lenalidomide was unknown. Meanwhile, tretinoin-sensitive cell line was C8166 and tretinoin-resistant cell line was Hut102. The sensitivity of ATN-1, TL-Om1, and MT-1 to tretinoin was unknown. In addition, mogamulizumab-sensitive cell lines were ATN-1, TL-Om1, and MT-1, and mogamulizumab-resistant cell line was Hut102. The sensitivity of C8166 to mogamulizumab was unknown. These cells were passaged and cultured. For the experiment, cells were prepared to a density of 1×10^6 cells/ml at the beginning of the experiment.
(§2) To the cell suspension, 5-ALA was added at concentrations of 0, 0.0625, 0.125, 0.25, and 0.5 mM and loaded for 4 hours. The cell after 5-ALA loading was washed and irradiated with light (0, 10, 30, and 100 J/cm^2) at a central wavelength of 630 nm, and cell survival rate (%) was calculated by Cell Counting Kit-8.

Hut102 ATL cell line = experiment: PDT using 5-ALA, cell survival rate by Cell Counting Kit-8, Hut102; conditions: for EC50: HuT-102, light or radiation study, 4 h, Hut102, 5-ALA loaded 4 hours
Text: as §1, §2

ATN-1 ATL cell line = experiment: PDT using 5-ALA, cell survival rate by Cell Counting Kit-8, ATN-1; conditions: Homo sapiens, ATN-1, light or radiation study, 4 h, 5-ALA loaded 4 hours
Text: as §1, §2

TL-Om1 ATL cell line = experiment: PDT using 5-ALA, cell survival rate by Cell Counting Kit-8, TL-Om1; conditions: light or radiation study, 4 h, 5-ALA loaded 4 hours
Text: as §1, §2

MT-1 ATL cell line = experiment: PDT using 5-ALA, cell survival rate by Cell Counting Kit-8, MT-1; conditions: light or radiation study, 4 h, 5-ALA loaded 4 hours
Text: as §1, §2

[1] = test system: LAMA84-r imatinib-resistant CML cell line; experiment: PDT using 5-ALA, cell survival rate by Cell Counting Kit-8, LAMA84-r
Experimental: (§3) LAMA84-r was used as imatinib-resistant CML cell line and the original cell line LAMA84-s (imatinib-sensitive) was used as a comparative control. In addition, K562/ADR was used as doxorubicin-resistant CML cell line and the original cell line K562 (doxorubicin-sensitive) was used as a comparative control. These cells were passaged and cultured. For the experiment, cells were prepared to a density of 1×10^6 cells/ml at the beginning of the experiment.
as §2

[2] = test system: K562/ADR doxorubicin-resistant CML cell line; experiment: PDT using 5-ALA, cell survival rate by Cell Counting Kit-8, K562/ADR
Experimental: as §3, §2

For `NCC(=O)CCC(=O)O` [5-ALA, 5-aminolevulinic acid], which “cell killing by PDT using 5-ALA” value (C8166 ATL cell line; C8166, lenalidomide-resistant cell line, FIG. 1) is on record?
Its value is “killed”.

And the EC50 (C8166 ATL cell line; 10 J/cm^2 at 630 nm)?
Its EC50 is 113 µM.

What about the EC50 (C8166 ATL cell line; 30 J/cm^2 at 630 nm) of the same compound?
Its EC50 is 87 µM.

What about the EC50 (C8166 ATL cell line; 100 J/cm^2 at 630 nm) of the same compound?
The EC50 was 77 µM.

What about the “cell killing effect of PDT using 5-ALA relative to sensitive cell line” value (C8166 ATL cell line; lenalidomide-resistant C8166 versus lenalidomide-sensitive Hut102) of the same compound?
Its value is “comparable”.

And the “cell killing effect of PDT using 5-ALA relative to sensitive cell line” value (C8166 ATL cell line; tretinoin-resistant cell line C8166 versus tretinoin-sensitive cell line Hut102 (so in the source))?
The value was “comparable”.

And the “cell killing by PDT using 5-ALA” value (Hut102 ATL cell line; HuT102, mogamulizumab-resistant and tretinoin-resistant cell line, FIG. 1)?
Its value is “killed”.

And the EC50 (Hut102 ATL cell line; 10 J/cm^2 at 630 nm)?
The EC50 was 441 µM.

What about the EC50 (Hut102 ATL cell line; 30 J/cm^2 at 630 nm) of the same compound?
Its EC50 is 277 µM.

And the EC50 (Hut102 ATL cell line; 100 J/cm^2 at 630 nm)?
Its EC50 is 173 µM.

And the “cell killing effect of PDT using 5-ALA relative to sensitive cell lines” value (Hut102 ATL cell line; mogamulizumab-resistant Hut102 versus the other sensitive cell lines (ATN-1, TL-Om1, MT-1))?
The value was “at least comparable”.

And the EC50 (ATN-1 ATL cell line; 10 J/cm^2 at 630 nm)?
Its EC50 is 113 µM.

What about the EC50 (ATN-1 ATL cell line; 30 J/cm^2 at 630 nm) of the same compound?
Its EC50 is 87 µM.

What about the EC50 (ATN-1 ATL cell line; 100 J/cm^2 at 630 nm) of the same compound?
The EC50 was 84 µM.

And the EC50 (TL-Om1 ATL cell line; 10 J/cm^2 at 630 nm)?
The EC50 was 269 µM.

And the EC50 (TL-Om1 ATL cell line; 30 J/cm^2 at 630 nm)?
The EC50 was 141 µM.

And the EC50 (TL-Om1 ATL cell line; 100 J/cm^2 at 630 nm)?
The EC50 was 92 µM.

What about the EC50 (MT-1 ATL cell line; 10 J/cm^2 at 630 nm) of the same compound?
The EC50 was greater than 500 µM.

What about the EC50 (MT-1 ATL cell line; 30 J/cm^2 at 630 nm) of the same compound?
Its EC50 is 202 µM.

And the EC50 (MT-1 ATL cell line; 100 J/cm^2 at 630 nm)?
Its EC50 is 115 µM.

And the “cell killing by PDT using 5-ALA” value ([1]; LAMA84-r, imatinib-resistant cell line, FIG. 2)?
Its value is “killed”.

What about the “cell killing effect of PDT using 5-ALA relative to sensitive cell line” value ([1]; imatinib-resistant LAMA84-r versus LAMA84-s) of the same compound?
Its value is “comparable”.

And the “cell killing by PDT using 5-ALA” value ([2]; K562/ADR, doxorubicin-resistant cell line, FIG. 2)?
Its value is “killed”.

And the “cell killing effect of PDT using 5-ALA relative to sensitive cell line” value ([2]; doxorubicin-resistant K562/ADR versus K562)?
Its value is “comparable”.
